Earlier results as cited in patent publication US20040054006A1 (priority 1999, published 2004).

Assays:
[1] = 1% dietary cyclocreatine
[2] = feeding animals cyclocreatine, e.g. 1% dietary
[3] = rats, dietary 1% cyclocreatine
[4] = tested on: creatine kinase; conditions: forward reaction, both in vitro and in vivo
[5] = mice, up to 1% of diet for 2 weeks or for over 4 weeks
[6] = fed to mice, rats and chicks
[7] = newly hatched chicks, diet containing 1% cyclocreatine
[8] = intravenous injection, up to 8 grams/day, patients with cardiac diseases

Row | Molecule | antiviral activity [1] | accumulation in different organs [2] | tissue uptake [3] | phosphorylation by creatine kinase [4] | gross adverse effects [5] | tolerability [6] | growth versus control chicks [7] | mortality ([7]; in the presence of antibiotics) | adverse side effects [8]
1 | NC1=NCCN1CC(=O)O [cyclocreatine, 1-carboxymethyl-2-iminoimidazolidine] | antiviral activity of cyclocreatine is observed | accumulation of cyclocreatine in different organs in mM concentrations | taken up by muscle, heart and brain | phosphorylated efficiently | without gross adverse effects | well-tolerated | grew more slowly than control chicks | without significant mortality | –
2 | N-phosphoryl creatine [Creatine phosphate] | – | – | – | – | – | – | – | – | no adverse side effects
